Laboratory results taken from ChEMBL document CHEMBL3046747, “Assessment of species specificity of moulting accelerating compounds in Lepidoptera: comparison of activity between Bombyx mori and Spodoptera littoralis by in vitro reporter and in vivo toxicity assays” (Pest Manag Sci, 2010).

Assays:
[1] = target: T1, Ecdysone receptor (Bombyx mori) (UniProt P49881); assay: Agonist activity at ecdysone receptor in Bombyx mori Bm5 cells after 24 hr by luciferase reporter gene assay relative to tebufenozide; assay type: cell-based
T1 sequence (whole entry): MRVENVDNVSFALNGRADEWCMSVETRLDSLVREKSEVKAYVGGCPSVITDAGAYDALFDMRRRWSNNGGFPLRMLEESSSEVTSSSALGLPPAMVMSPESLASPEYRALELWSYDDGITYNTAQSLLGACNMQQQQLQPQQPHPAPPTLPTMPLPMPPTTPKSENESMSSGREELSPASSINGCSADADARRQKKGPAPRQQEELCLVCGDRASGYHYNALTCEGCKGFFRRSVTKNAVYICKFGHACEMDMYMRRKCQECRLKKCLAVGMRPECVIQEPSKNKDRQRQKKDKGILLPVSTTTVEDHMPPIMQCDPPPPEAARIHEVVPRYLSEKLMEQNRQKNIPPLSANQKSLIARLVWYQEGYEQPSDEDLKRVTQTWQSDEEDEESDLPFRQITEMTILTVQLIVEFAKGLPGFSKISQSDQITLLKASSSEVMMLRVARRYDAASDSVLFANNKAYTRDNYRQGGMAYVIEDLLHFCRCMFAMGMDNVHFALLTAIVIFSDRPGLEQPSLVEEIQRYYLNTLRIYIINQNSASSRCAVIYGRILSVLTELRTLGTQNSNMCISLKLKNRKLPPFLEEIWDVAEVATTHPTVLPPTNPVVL

Ecdysone receptor [2] = target: T2, Ecdysone receptor (Bombyx mori, UniProt P49881); assay: Agonist activity at ecdysone receptor in Bombyx mori Bm5 cells after 24 hr by luciferase reporter gene assay; assay type: cell-based; details: read-out: pEC50 (converted)
T2 sequence (P49881 whole entry): T1 sequence (whole entry)

Spodoptera littoralis = assay: Larvicidal activity against Spodoptera littoralis assessed as mortality applied topically after 1 week; assay type: functional
[3] = Selectivity ratio of EC50 for ecdysone receptor in Bombyx mori Bm5 cells to EC50 for ecdysone receptor in Spodoptera littoralis Sl2 cells; assay type: cell-based
Ecdysone receptor [4] = target: T3, Ecdysone receptor (Spodoptera littoralis, UniProt E3UJZ5); assay: Agonist activity at ecdysone receptor in Spodoptera littoralis Sl2 cells after 24 hr by luciferase reporter gene assay; assay type: cell-based; details: read-out: pEC50 (converted)
T3 sequence (E3UJZ5 whole entry): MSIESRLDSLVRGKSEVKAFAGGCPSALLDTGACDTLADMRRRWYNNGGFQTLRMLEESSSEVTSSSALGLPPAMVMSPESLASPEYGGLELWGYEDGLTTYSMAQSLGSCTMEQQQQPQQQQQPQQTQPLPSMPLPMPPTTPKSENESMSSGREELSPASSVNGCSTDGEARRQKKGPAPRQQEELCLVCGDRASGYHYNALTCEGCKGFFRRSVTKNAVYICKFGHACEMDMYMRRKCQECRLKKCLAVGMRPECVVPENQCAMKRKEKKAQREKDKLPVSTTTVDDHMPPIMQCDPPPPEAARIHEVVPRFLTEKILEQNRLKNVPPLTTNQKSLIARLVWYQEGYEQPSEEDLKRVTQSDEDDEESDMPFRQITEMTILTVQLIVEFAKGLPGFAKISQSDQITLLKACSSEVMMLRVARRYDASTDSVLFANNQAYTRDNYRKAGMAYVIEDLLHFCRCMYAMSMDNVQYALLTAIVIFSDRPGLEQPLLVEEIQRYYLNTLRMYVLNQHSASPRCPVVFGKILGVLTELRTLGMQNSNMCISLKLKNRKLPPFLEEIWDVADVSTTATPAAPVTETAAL

Bombyx mori = assay: Larvicidal activity against Bombyx mori assessed as mortality applied topically after 1 week; assay type: functional
[5] = target: T4, Ecdysone receptor (Spodoptera littoralis) (UniProt E3UJZ5); assay: Agonist activity at ecdysone receptor in Spodoptera littoralis Sl2 cells after 24 hr by luciferase reporter gene assay relative to tebufenozide; assay type: cell-based
T4 sequence (whole entry): T3 sequence (E3UJZ5 whole entry)

[6] = Ratio of LD50 for Spodoptera littoralis to LD50 for Bombyx mori; assay type: functional

Cc1cc(C)cc(C(=O)N(NC(=O)c2cccc(C)c2C)C(C)(C)C)c1
Efficacy [1]: 82%
EC50 (Ecdysone receptor [2]): 11 nM
pLD50 (Spodoptera littoralis): 6.44
Ratio EC50 [3]: 0.68
EC50 (Ecdysone receptor [4]): 16.2 nM
pLD50 (Bombyx mori): 7.29
Efficacy [5]: 63%
Ratio [6]: 7.08

CCOc1ccccc1C(=O)N(NC(=O)c1ccc(Cl)cc1)C(C)(C)C
Efficacy [1]: 74%
EC50 (Ecdysone receptor [2]): 7760 nM
Ratio EC50 [3]: 0.81
EC50 (Ecdysone receptor [4]): 9550 nM
Efficacy [5]: 80%

CC(C)(C)N(NC(=O)c1cccc(Cl)c1)C(=O)c1ccccc1Cl
Efficacy [1]: 119%
EC50 (Ecdysone receptor [2]): 309 nM
pLD50 (Spodoptera littoralis): <5.44
Ratio EC50 [3]: 0.18
EC50 (Ecdysone receptor [4]): 1700 nM
pLD50 (Bombyx mori): 5.82
Efficacy [5]: 75%
Ratio [6]: > 2.4

CCCCCc1ccc(C(=O)NN(C(=O)c2cc(C)cc(C)c2Cl)C(C)(C)C)cc1
Efficacy [1]: 45%
EC50 (Ecdysone receptor [2]): 1780 nM
Ratio EC50 [3]: 0.5
EC50 (Ecdysone receptor [4]): 3550 nM
Efficacy [5]: 76%

CCOc1ccccc1C(=O)N(NC(=O)c1ccc(OC)cc1)C(C)(C)C
Efficacy [1]: 59%
EC50 (Ecdysone receptor [2]): 19100 nM
Ratio EC50 [3]: 0.87
EC50 (Ecdysone receptor [4]): 21900 nM
Efficacy [5]: 45%

CC(C)(C)N(NC(=O)c1ccc(Br)cc1)C(=O)c1ccccc1Cl
Efficacy [1]: 106%
EC50 (Ecdysone receptor [2]): 151 nM
pLD50 (Spodoptera littoralis): <5.39
Ratio EC50 [3]: 0.34
EC50 (Ecdysone receptor [4]): 437 nM
pLD50 (Bombyx mori): 6.27
Efficacy [5]: 77%
Ratio [6]: > 7.59

CC(C)(C)N(NC(=O)c1ccccc1F)C(=O)c1ccccc1Cl
Efficacy [1]: 93%
EC50 (Ecdysone receptor [2]): 145 nM
pLD50 (Spodoptera littoralis): <4.7
Ratio EC50 [3]: 0.5
EC50 (Ecdysone receptor [4]): 288 nM
pLD50 (Bombyx mori): 7.37
Efficacy [5]: 105%
Ratio [6]: > 468

Cc1ccc(C(=O)NN(C(=O)c2cc(C)cc(C)c2Cl)C(C)(C)C)cc1
Efficacy [1]: 108%
EC50 (Ecdysone receptor [2]): 302 nM
Ratio EC50 [3]: 0.22
EC50 (Ecdysone receptor [4]): 1350 nM
Efficacy [5]: 85%

Cc1ccccc1C(=O)NN(C(=O)c1ccccc1Cl)C(C)(C)C
Efficacy [1]: 98%
EC50 (Ecdysone receptor [2]): 129 nM
pLD50 (Spodoptera littoralis): <5.46
Ratio EC50 [3]: 0.3
EC50 (Ecdysone receptor [4]): 437 nM
pLD50 (Bombyx mori): 6.69
Efficacy [5]: 124%
Ratio [6]: > 17

Cc1cc(C)c(Cl)c(C(=O)N(NC(=O)c2ccc3c(c2C)CCCO3)C(C)(C)C)c1
Efficacy [1]: 95%
EC50 (Ecdysone receptor [2]): 33.1 nM
pLD50 (Spodoptera littoralis): <4.36
Ratio EC50 [3]: 0.49
EC50 (Ecdysone receptor [4]): 67.6 nM
pLD50 (Bombyx mori): 5.01
Efficacy [5]: 114%
Ratio [6]: > 4.47

Cc1cc(C)cc(C(=O)N(NC(=O)c2ccc(C(C)(C)C)cc2)C(C)(C)C)c1
Efficacy [1]: 88%
EC50 (Ecdysone receptor [2]): 7.08 nM
pLD50 (Spodoptera littoralis): 4.72
Ratio EC50 [3]: 1.01
EC50 (Ecdysone receptor [4]): 7.08 nM
pLD50 (Bombyx mori): 7.19
Efficacy [5]: 69%
Ratio [6]: > 295

CC(C)(C)N(NC(=O)c1ccccc1)C(=O)c1ccccc1 [RH-5849]
Efficacy [1]: 87%
EC50 (Ecdysone receptor [2]): 437 nM
pLD50 (Spodoptera littoralis): 4.75
Ratio EC50 [3]: 0.34
EC50 (Ecdysone receptor [4]): 1290 nM
pLD50 (Bombyx mori): 5.55
Efficacy [5]: 91%
Ratio [6]: 17.8

COc1ccc(C(=O)NN(C(=O)c2ccccc2Cl)C(C)(C)C)cc1
Efficacy [1]: 126%
EC50 (Ecdysone receptor [2]): 135 nM
pLD50 (Spodoptera littoralis): <5.44
Ratio EC50 [3]: 0.4
EC50 (Ecdysone receptor [4]): 339 nM
pLD50 (Bombyx mori): 6.53
Efficacy [5]: 85%
Ratio [6]: > 12.3

CCc1ccc(C(=O)NN(C(=O)c2cc(C)cc(C)c2Cl)C(C)(C)C)cc1
Efficacy [1]: 85%
EC50 (Ecdysone receptor [2]): 115 nM
pLD50 (Spodoptera littoralis): <4.41
Ratio EC50 [3]: 0.34
EC50 (Ecdysone receptor [4]): 339 nM
pLD50 (Bombyx mori): 4.94
Efficacy [5]: 83%
Ratio [6]: > 3.39

CCc1ccc(C(=O)NC2(C(=O)c3cc(C)cc(C)c3)CCCCC2)cc1
Efficacy [1]: 112%
EC50 (Ecdysone receptor [2]): 77.6 nM
pLD50 (Spodoptera littoralis): <4.44
Ratio EC50 [3]: 0.65
EC50 (Ecdysone receptor [4]): 120 nM
pLD50 (Bombyx mori): 6.08
Efficacy [5]: 101%
Ratio [6]: > 23.4

Cc1ccccc1C(=O)N(NC(=O)c1cccc(F)c1)C(C)(C)C
Efficacy [1]: 92%
EC50 (Ecdysone receptor [2]): 324 nM
Ratio EC50 [3]: 0.7
EC50 (Ecdysone receptor [4]): 457 nM
Efficacy [5]: 120%

Cc1c(C(=O)NN(C(=O)c2ccccc2Cl)C(C)(C)C)ccc2c1CCCO2
Efficacy [1]: 106%
EC50 (Ecdysone receptor [2]): 2.88 nM
pLD50 (Spodoptera littoralis): <4.4
Ratio EC50 [3]: 0.53
EC50 (Ecdysone receptor [4]): 5.37 nM
pLD50 (Bombyx mori): 6.95
Efficacy [5]: 108%
Ratio [6]: > 355

CCc1ccc(C(=O)NN(C(=O)c2cc(C)cc(C)c2)C(C)(C)C)cc1 [TEBUFENOZIDE]
Efficacy [1]: 100%
EC50 (Ecdysone receptor [2]): 1.12 nM
pLD50 (Spodoptera littoralis): 6.58
Ratio EC50 [3]: 0.51
EC50 (Ecdysone receptor [4]): 2.19 nM
pLD50 (Bombyx mori): 7.6
Efficacy [5]: 100%
Ratio [6]: 10.5

Cc1cc(C)c(Cl)c(C(=O)N(NC(=O)c2ccccc2)C(C)(C)C)c1
Efficacy [1]: 92%
EC50 (Ecdysone receptor [2]): 1170 nM
Ratio EC50 [3]: 0.68
EC50 (Ecdysone receptor [4]): 1740 nM
Efficacy [5]: 87%

COc1ccc(C(=O)NN(C(=O)c2cc(C)cc(C)c2Cl)C(C)(C)C)cc1
Efficacy [1]: 100%
EC50 (Ecdysone receptor [2]): 1230 nM
Ratio EC50 [3]: 0.6
EC50 (Ecdysone receptor [4]): 2040 nM
Efficacy [5]: 105%

CC(C)(C)N(NC(=O)c1ccccc1)C(=O)c1ccc(Cl)c(Cl)c1Cl
Efficacy [1]: 79%
EC50 (Ecdysone receptor [2]): 3630 nM
pLD50 (Spodoptera littoralis): <5.4
Ratio EC50 [3]: 0.69
EC50 (Ecdysone receptor [4]): 5250 nM
pLD50 (Bombyx mori): <5.4
Efficacy [5]: 95%

CCCCc1ccc(C(=O)NN(C(=O)c2cc(C)cc(C)c2Cl)C(C)(C)C)cc1
Efficacy [1]: 45%
EC50 (Ecdysone receptor [2]): 1150 nM
Ratio EC50 [3]: 1.02
EC50 (Ecdysone receptor [4]): 1120 nM
Efficacy [5]: 69%

CCCc1ccc(C(=O)NN(C(=O)c2ccccc2Cl)C(C)(C)C)cc1
Efficacy [1]: 107%
EC50 (Ecdysone receptor [2]): 30.9 nM
Ratio EC50 [3]: 0.42
EC50 (Ecdysone receptor [4]): 74.1 nM
Efficacy [5]: 75%

CCc1ccc(C(=O)NC(CC)(CC)C(=O)c2cc(C)cc(C)c2)cc1
Efficacy [1]: 95%
EC50 (Ecdysone receptor [2]): 1260 nM
Ratio EC50 [3]: 0.29
EC50 (Ecdysone receptor [4]): 4270 nM
Efficacy [5]: 96%

CCCCc1ccc(C(=O)NN(C(=O)c2ccccc2OCC)C(C)(C)C)cc1
Efficacy [1]: 20%
EC50 (Ecdysone receptor [2]): 16200 nM
Ratio EC50 [3]: 2.09
EC50 (Ecdysone receptor [4]): 7760 nM
Efficacy [5]: 41%

CC(C)c1ccc(C(=O)NN(C(=O)c2ccccc2Cl)C(C)(C)C)cc1
Efficacy [1]: 116%
EC50 (Ecdysone receptor [2]): 6.61 nM
Ratio EC50 [3]: 0.38
EC50 (Ecdysone receptor [4]): 17.4 nM
Efficacy [5]: 95%

CCCCCc1ccc(C(=O)NN(C(=O)c2ccccc2Cl)C(C)(C)C)cc1
Efficacy [1]: 97%
EC50 (Ecdysone receptor [2]): 427 nM
Ratio EC50 [3]: 1.32
EC50 (Ecdysone receptor [4]): 324 nM
Efficacy [5]: 86%

CCOc1ccccc1C(=O)N(NC(=O)c1ccc(CC)cc1)C(C)(C)C
Efficacy [1]: 92%
EC50 (Ecdysone receptor [2]): 2880 nM
Ratio EC50 [3]: 0.42
EC50 (Ecdysone receptor [4]): 6920 nM
Efficacy [5]: 89%

CC(C)(C)N(NC(=O)c1ccccc1)C(=O)c1ccccc1C(F)(F)F
Efficacy [1]: 92%
EC50 (Ecdysone receptor [2]): 871 nM
Ratio EC50 [3]: 1.1
EC50 (Ecdysone receptor [4]): 794 nM
Efficacy [5]: 98%

Cc1cc(C)c(Cl)c(C(=O)N(NC(=O)c2ccc(Cl)cc2)C(C)(C)C)c1
Efficacy [1]: 93%
EC50 (Ecdysone receptor [2]): 447 nM
Ratio EC50 [3]: 0.42
EC50 (Ecdysone receptor [4]): 1070 nM
Efficacy [5]: 101%

CCC(CC)(NC(=O)c1ccc2c(c1C)CCCO2)C(=O)c1cc(C)cc(C)c1
Efficacy [1]: 113%
EC50 (Ecdysone receptor [2]): 191 nM
Ratio EC50 [3]: 1.15
EC50 (Ecdysone receptor [4]): 166 nM
Efficacy [5]: 104%
